The values that follow come from ChEMBL document CHEMBL1148125, “Total synthesis and bioactivity of some naturally occurring pterulones” (2002).

Type in all cases: functional
For experiment [1], the system named is Saccharomyces cerevisiae. Description: Antimicrobial activity against Saccharomyces cerevisiae CBS 1394 assessed as relative growth at 50 ug/mL after 24 to 48 hrs relative to control.
Experiment [2] deals with Rhodotorula glutinis. The experiment is described as follows: Antimicrobial activity against Rhodotorula glutinis ATCC 201718 assessed as relative growth at 50 ug/mL after 24 to 48 hrs relative to control.
Experiment [3] concerns Rhodotorula glutinis. Description: Antimicrobial activity against Rhodotorula glutinis ATCC 201718 assessed as relative growth at 100 ug/mL after 24 to 48 hrs relative to control.
In experiment [4] the test system is Saccharomyces cerevisiae. The experiment is described as follows: Antimicrobial activity against Saccharomyces cerevisiae CBS 1394 assessed as relative growth at 100 ug/mL after 24 to 48 hrs relative to control.

Take `CC(=O)c1ccc2c(c1)C=C/C(=C/Cl)CO2`: the Activity in the experiment with Saccharomyces cerevisiae [1] is on record as 91%; in the experiment with Rhodotorula glutinis [2], 58%; with Rhodotorula glutinis [3], 40%; with Saccharomyces cerevisiae [4], 84%.
In the case of `O=Cc1ccc2c(c1)C=C/C(=C/Cl)CO2`, the Activity is on record as 91% with Saccharomyces cerevisiae [1], 96% in the experiment with Rhodotorula glutinis [2], 65% with Rhodotorula glutinis [3] and 87% in the experiment on Saccharomyces cerevisiae [4].
On to `OCc1ccc2c(c1)C=C/C(=C/Cl)CO2`, for which the Activity was 89% in the experiment with Saccharomyces cerevisiae [1], 5.5% in the experiment on Rhodotorula glutinis [2], below 1% in the experiment on Rhodotorula glutinis [3] and 1% in the experiment with Saccharomyces cerevisiae [4].
